Data set [1] addresses carbonic anhydrase II (CA-II) (Bos taurus, UniProt P00921). Put plainly: Carbonic anhydrase assay (p-nitrophenyl acetate hydrolysis). To be noted: for IC50: bovine enzyme, mean ± SEM. It is filed as biochemical, bovine. The method, then:
As mentioned previously, the inhibition of carbonic anhydrase was investigated with adjustments. The method relies on the fact that carbonic anhydrase hydrolyzes p-nitrophenyl acetate into yellow-colored p-nitrophenol, which is then quantified spectrophotometrically. Each well contained 120 µL of a 50 mM Tris-sulfate buffer (pH 7.6, containing 0.1 mM ZnCl2), 20 µL of an inhibitor, and 20 µL of bovine enzyme (50 U). The materials were properly mixed and incubated for 10 min at 25 degrees Celsius. The substrate p-nitrophenyl acetate was synthesized (6 mM stock using <5% acetonitrile in buffer and used fresh each time) and 40 µL was added per well to achieve a concentration of […] per well. The total volume of the reaction was 200 µL. […] Each concentration was assessed in three distinct tests. The IC50 values were calculated with GraphPad Prism 5.0 [38] and nonlinear regression (GraphPad, San Diego, CA USA). (2) Inhibition (%)=B−S/B×100
Here, B and S represent the absorbances of the blank and sample, respectively.

For a further data set, the target named is carbonic anhydrase (Bos taurus, UniProt P00921). Put plainly: Kinetic analysis of carbonic anhydrase inhibition (Lineweaver–Burk plots). Format: biochemical, bovine. From the text: Based on the IC50 values, the most efficacious carbonic anhydrase inhibitor, compound 6e, was designated for kinetic investigation. Lineweaver-–Burk plots and a second plot are depicted in (Figure 3A,B). At various concentrations of the inhibitor and substrate, Lineweaver–Burk plots (plot of 1/V vs. 1/[S]) were generated to determine the kind of inhibition. […] The EI dissociation constant was shown by the second plot (Figure 3B) of the slope vs. the concentration of 6e.
Chain of carbonic anhydrase (P00921 whole entry): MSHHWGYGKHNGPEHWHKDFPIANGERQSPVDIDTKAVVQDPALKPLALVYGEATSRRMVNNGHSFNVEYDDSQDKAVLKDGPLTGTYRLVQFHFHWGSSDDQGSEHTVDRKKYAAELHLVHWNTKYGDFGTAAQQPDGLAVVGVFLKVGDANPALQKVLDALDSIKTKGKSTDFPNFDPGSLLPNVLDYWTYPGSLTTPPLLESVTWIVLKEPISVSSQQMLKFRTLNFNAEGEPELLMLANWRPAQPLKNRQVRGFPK
To investigate the kinetic properties of compound 6e, identical experiments to those described in previous study were performed. The compound 6e was selected based on its IC50 value at various concentrations (0.00, 0.78, 1.55, and 3.11 µM, respectively), whereas the substrate concentrations (p-nitrophenyl acetate) were varied from (2, 1, 0.5, 0.25 and 0.125 mM). Other experimental settings mirrored those mentioned in the section under “Carbonic anhydrase assay”. The maximum starting velocity was estimated using the first linear section of absorbance up to 10 min at 1 min intervals. To evaluate the kind of enzyme inhibition, Lineweaver–Burk plots depicting the inverse of velocities (1/V) vs. the inverse of substrate concentration (1/[S] mM^−1) were utilized. […] Version 11 of Microsoft Excel was used to create graphs.

In general, melting point refers to the temperature of the solid-liquid transition. Broadly, the IC50 is the concentration that inhibits the measured activity by half. Low readings indicate greater potency, high ones weaker potency. By Ki is commonly meant a measure of affinity in units of concentration, obtained from inhibition or displacement.

Chain of carbonic anhydrase II (CA-II) (P00921 whole entry): as above

`CCOC(=O)C=C1SC(=NC(=O)c2ccccc2C)N(c2cccc(CC)c2)C1=O` [Compound 6a] gave a melting point of 235 to 237 °C. In addition, the IC50 in data set [1] was 1.66 ± 0.095 µM.

With `CCOC(=O)/C=C1\S/C(=N\C(=O)c2ccc(Cl)cc2Cl)N(c2cccc(CC)c2)C1=O` [Compound 6b], the melting point lay in the range of 235 to 237 °C. This compound also came in with an IC50 in data set [1] of 67.5 ± 2.71 µM.

Compound `CCOC(=O)/C=C1\S/C(=N\C(=O)c2ccccc2Br)N(c2cccc(CC)c2)C1=O` [Compound 6c] registered a melting point of 235 to 237 °C. This compound also returned an IC50 in data set [1] of 60.1 ± 1.92 µM.

Take `CCOC(=O)/C=C1\S/C(=N\C(=O)c2ccc(C)cc2)N(c2cccc(CC)c2)C1=O` [Compound 6d]: the melting point fell in the range of 235 to 237 °C. The compound further yielded an IC50 in data set [1] of 6.5 ± 0.854 µM.

`CCOC(=O)/C=C1\S/C(=N\C(=O)c2cccc(C)c2)N(c2cccc(CC)c2)C1=O` [Compound 6e] came in with a melting point of 235 to 237 °C. Moreover, the kind of inhibition result at carbonic anhydrase (Lineweaver–Burk plots) is recorded as “competitive mechanism”. At carbonic anhydrase (from slope vs. concentration of 6e, substrate p-nitrophenyl acetate, read-out: Ki (EI dissociation constant)), the Ki came to 2.2 µM. This compound registered an IC50 in data set [1] of 1.54 ± 0.016 µM.

On to `CCOC(=O)/C=C1\S/C(=N\C(=O)c2ccccc2)N(c2cccc(CC)c2)C1=O` [Compound 6f], for which the melting point was 235 to 237 °C. This compound also showed an IC50 in data set [1] of 9.52 ± 1.08 µM.

The compound `CCOC(=O)/C=C1\S/C(=N\C(=O)c2cccc(Cl)c2)N(c2cccc(CC)c2)C1=O` [Compound 6g] yielded a melting point of 235 to 237 °C. Half-maximal inhibition in data set [1] (IC50) was put at 1.78 ± 0.095 µM.

In the case of `CCOC(=O)/C=C1\S/C(=N\C(=O)c2ccccc2F)N(c2cccc(CC)c2)C1=O` [Compound 6h], the melting point lay within 235 to 237 °C. Moreover, in data set [1], the IC50 worked out at 11 ± 1.28 µM.

`CCOC(=O)/C=C1\S/C(=N\C(=O)c2ccccc2Cl)N(c2cccc(CC)c2)C1=O` [Compound 6i] had a melting point of 235 to 237 °C. This compound also displayed an IC50 in data set [1] of 5.03 ± 0.659 µM. The “activity reduced, fold, in comparison to the inhibitory value of derivative 6g” value in data set [1] (relative to 6g) was “approximately 2.9 fold”.

For the compound `CCOC(=O)/C=C1\S/C(=N\C(=O)c2ccc(F)cc2)N(c2cccc(CC)c2)C1=O` [Compound 6j], the melting point is 235 to 237 °C. Moreover, in data set [1], half-maximal inhibition (IC50) was put at 4.45 ± 0.329 µM.

The record behind these values is article PMC9687900, “Design, Synthesis, Kinetic Analysis and Pharmacophore-Directed Discovery of 3-Ethylaniline Hybrid Imino-Thiazolidinone as Potential Inhibitor of Carbonic Anhydrase II: An Emerging Biological Target for Treatment of Cancer” (Biomolecules, 2022).
